US7335770B2, “Triazine compounds and their analogs, compositions, and methods” (Reddy U5 Therapeutics, Inc., priority 2004, dated 2008)
Counter-ions that a name gives are not always drawn. Like-named read-outs stand apart in the source and are kept apart here.

System: smooth muscle cells (SMC)
Test: anti-proliferation assay (perlecan)
Assay type: cell-based
Method: The activity scale used in Table 3 as follows (numbers are inclusive): “+++” represents IC50 of less than about 3 μM; “++” represents IC50 of between about 3 and about 7 μM; and “+” represents IC50 of greater than about 7 μM. In addition, compounds, to include compositions thereof, encompassed within the scope of structures Ia-XXIVa, respectively, or listed in Tables 1A and 1E may be likewise employed in this embodiment and/or aspect of the present invention. Further, any hydrogen atoms that are required for any atom to attain its usual valence in a structure presented in Table 3, whether a carbon atom or a heteroatom, should be inferred if it is not specifically indicated.
In addition to the above compounds, the following compounds and compositions comprising these compounds are active in an anti-proliferation assay (Perlecan). These compounds and compositions comprising these compounds are, among other things, generally useful for treating cardiovascular disorders associated with proliferative activity. Specifically, these compounds include N^2-cycloheptyl-N^4-(3-fluoro-4-methoxyphenyl)-N^6-methyl-N^6-(1-methyl-piperidin-4-yl)-1,3,5-triazine-2,4,6-triamine, and N^2-cycloheptyl-N^4-methyl-N^4-(1-methyl-piperidin-4-yl)-N^6-naphthalen-2-yl-1,3,5-triazine-2,4,6-triamine.
Methods for identifying the activity and screening for one or more of these compounds or molecules that induce synthesis of proteoglycans such as HSPG (heparan sulfate proteoglycan) are taught in U.S. patent application Ser. No. 10/091,357, which is incorporated herein in its entirety. Assays of effects of compounds in vivo are also taught in the incorporated references and are known to those skilled in the art. In general, methods comprise the addition of such compounds to assays and measurement of HSPG synthesis including, but not limited to, the production of syndecans, glypicans and perlecans, for example, syndecans 1, 2 and 4; and glypican-1. Other assays that can be used to determine the activity of the compounds of the present invention include other methods for measuring the induction of perlecan synthesis. For example, in one assay, perlecan is induced in cells by certain inducers, and the response is measured. Compounds of the present invention are then added to a replicate assay and the effect on perlecan induction is determined. Using such methods, compounds are determined that can either inhibit perlecan, elevate induction of perlecan, or that have no effect at all. Those compounds that are effective as therapeutic agents can then be used in animals, humans or patients with cellular proliferation disease aspects, such as vascular-associated diseases or SMC proliferation pathologies.
Another assay for determining compounds having SMC effects comprises adding a composition suspected of affecting SMC proliferation to smooth muscle cells in growth medium or serum-free medium. The change in cell proliferation can be measured by methods known to those skilled in the art, such as incorporation of labeled nucleotides into dividing cells' DNA, and compared to the proliferation of cells which are not treated with the compound. Other measurements include directly determining levels of HSPG synthesis by measuring the amount or change in amount of HSPG such as with ELISA for HSPGs, and compared to the amount of HSPG synthesis in untreated cells. Other indirect or direct measurement are contemplated by the present invention and are known to those skilled in the art. For example, such methods include, but are not limited to, measurement of RNA levels, RT-PCR, Northern blotting, Western blotting promoter-based assays to identify compounds that affect one or more proteoglycans and assays for proteoglycan biological activity shown by recombinant proteins, partially purified proteins, or lysates from cells expressing proteoglycans in the presence or absence of compounds of interest.

[1] = anti-proliferation assay (perlecan), class of IC50, read-out: Activity (note 1)
[2] = anti-proliferation assay (perlecan), some cells print no unit, read-out: Avg IC-50

SMILES: COc1ccc(Nc2nc(NC3CCCCCC3)nc(OC(C)C)n2)cc1Cl [drawing 578, N-(3-Chloro-4-methoxy-phenyl)-N′-cyclo-heptyl-6-isopropoxy-[1,3,5]tri-azine-2,4-diamine]
- IC50 [1]: 3 to 7 µM
- IC50 [2]: 6.5 µM

SMILES: COc1ccc(Nc2nc(NC3CCCCCC3)nc(Oc3ccc(C#CC(C)(C)O)cc3)n2)cc1Cl [drawing 579, 4-{4-[4-(3-Chloro-4-methoxy-phenyl-amino)-6-cyclo-heptylamino-[1,3,5]triazin-2-yl-oxy]-phenyl}-2-methyl-but-3-yn-2-ol]
- IC50 [1]: < 3 µM
- IC50 [2]: 1.9 µM

SMILES: COc1ccc(Nc2nc(NC3CCCCCC3)nc(Oc3ccccc3C#CC(C)(C)O)n2)cc1Cl [drawing 580, 4-{2-[4-(3-Chloro-4-methoxy-phenyl-amino)-6-cyclo-heptylamino-[1,3,5]triazin-2-yl-oxy]-phenyl}-2-methyl-but-3-yn-2-ol]
- IC50 [1]: < 3 µM
- IC50 [2]: 2.8 µM

SMILES: CCN1CCCC(Oc2nc(Nc3ccc(OC)c(Cl)c3)nc(NC3CCCCCC3)n2)C1 (centres unmarked) [drawing 581, N-(3-Chloro-4-methoxy-phenyl)-N′-cyclo-heptyl-6-(1-ethyl-piper-idin-3-yloxy)-[1,3,5]triazine-2,4-di-amine]
- IC50 [1]: 3 to 7 µM
- IC50 [2]: 4.2 µM

SMILES: COc1ccc(Nc2nc(NC3CCCCCC3)nc(Oc3ccc(C=O)cc3)n2)cc1Cl [drawing 582, 4-[4-(3-Chloro-4-methoxy-phenyl-amino)-6-cyclo-heptylamino-[1,3,5]triazin-2-yl-oxy]-benzaldehyde]
- IC50 [1]: 3 to 7 µM
- IC50 [2]: 4.5 µM

SMILES: COc1ccc(Nc2nc(NC3CCCCCC3)nc(Oc3ccc(/C=N\O)cc3)n2)cc1Cl [drawing 583, 4-[4-(3-Chloro-4-methoxy-phenyl-amino)-6-cyclo-heptylamino-[1,3,5]triazin-2-yl-oxy]-benzaldehyde oxime]
- IC50 [1]: < 3 µM
- IC50 [2]: 0.72 µM

SMILES: COc1ccc(Nc2nc(NC(C)C)nc(Oc3ccc(C#CC(C)(C)O)cc3)n2)cc1Cl [drawing 584, 4-{4-[4-(3-Chloro-4-methoxy-phenyl-amino)-6-isopropylamino-[1,3,5]tri-azin-2-yloxy]-phenyl}-2-meth-yl-but-3-yn-2-ol]
- IC50 [1]: 3 to 7 µM
- IC50 [2]: 3.35 µM

SMILES: COc1ccc(Nc2nc(NC3CCCCCC3)nc(OCC3CCCO3)n2)cc1Cl (centres unmarked) [drawing 586, N-(3-Chloro-4-methoxy-phenyl)-N′-cyclo-heptyl-6-(tetrahydro-furan--2-ylmethoxy)-[1,3,5]tri-azine-2,4-diamine]
- IC50 [1]: < 3 µM
- IC50 [2]: 1.25 µM

SMILES: COc1ccc(Nc2nc(NCC3CCCO3)nc(NC3CCCCCC3)n2)cc1Cl (centres unmarked) [drawing 587, N-(3-Chloro-4-methoxy-phenyl)-N′-cyclo-heptyl-N″-(tetrahydro-furan--2-ylmethyl)-[1,3,5]triazine-2,4,6-tri-amine]
- IC50 [1]: < 3 µM
- IC50 [2]: 1.36 µM

SMILES: COc1ccc(Nc2nc(NCCNC(=O)OC(C)(C)C)nc(NC3CCCCCC3)n2)cc1Cl [drawing 588, {2-[4-(3-Chloro-4-methoxy-phenyl-amino)-6-cyclo-heptylamino-[1,3,5]triazin-2-yl-amino]-ethyl}-carbamic acidtert-butyl ester]
- IC50 [1]: < 3 µM
- IC50 [2]: 1.25 µM

SMILES: COc1ccc(Nc2nc(NCCN)nc(NC3CCCCCC3)n2)cc1Cl [drawing 589, N-(2-Amino-ethyl)-N′-(3-Chloro-4-meth-oxy-phenyl)-N″-cyclo-heptyl-[1,3,5]triazine-2,4,6-triamine]
- IC50 [1]: < 3 µM
- IC50 [2]: 1 µM

SMILES: CCN1CCCC1CNc1nc(Nc2ccc(C)c(F)c2)nc(NC2CCCCCC2)n1 (centres unmarked) [drawing 591, N-Cycloheptyl-N′-(1-ethyl-pyr-rolidin-2-ylmethyl)-N″-(3-fluoro--4-methyl-phenyl)-[1,3,5]tri-azine-2,4,6-triamine]
- IC50 [1]: < 3 µM
- IC50 [2]: 2.78 µM

SMILES: Cc1ccc(Nc2nc(NC3CCCCCC3)nc(N(C)C3CCN(C)CC3)n2)cc1F [drawing 592, N-Cycloheptyl-N′-(3-fluoro-4-meth-yl-phenyl)-N″-methyl-N″-(1-meth-yl-piperidin-4-yl)-[1,3,5]tri-azine-2,4,6-triamine]
- IC50 [1]: < 3 µM
- IC50 [2]: 2.25 µM

SMILES: CN1CCC(N(C)c2nc(Nc3cccc([N+](=O)[O-])c3)nc(NC3CCCCCC3)n2)CC1 [drawing 593, N-Cycloheptyl-N′-methyl-N′-(1-meth-yl-piperidin-4-yl)-N″-(3-ni-tro-phenyl)-[1,3,5]triazine-2,4,6-tri-amine]
- IC50 [1]: < 3 µM
- IC50 [2]: 0.91 µM

SMILES: COc1ccc(Nc2nc(NCCCCCNC(=O)CCCCC3SCC4NC(=O)NC43)nc(NC3CCCCCC3)n2)cc1Cl (centres unmarked) [drawing 594, 5-(2-Oxo-hexahydro-thieno[3,4-d]imi-dazol-4-yl)-pentanoic acid {5-[4-(3-chloro-4-methoxy-phenyl-amino)-6-cyclo-heptylamino-[1,3,5]triazin-2-yl-amino]-pentyl}-amide]
- IC50 (read-out: Activity (note 1)): < 3 µM
- IC50 (read-out: Avg IC-50): 2.2 µM

SMILES: COc1ccc(Nc2nc(NC3CCCCCC3)nc(NC3CCN(C(=O)CCCCC4SCC5NC(=O)NC54)CC3)n2)cc1Cl (centres unmarked) [drawing 595]
- IC50 (read-out: Activity (note 1)): < 3 µM
- IC50 (read-out: Avg IC-50): 0.71 µM

SMILES: COc1ccc(Nc2nc(NNC(=O)CCCCC3SCC4NC(=O)NC43)nc(NC3CCCCCC3)n2)cc1Cl (centres unmarked) [drawing 596, 5-(2-Oxo-hexahydro-thieno[3,4-d]imi-dazol-4-yl)-pentanoic acidN′-[4-(3-chloro-4-methoxy-phenyl-amino)-6-cyclo-heptylamino-[1,3,5]triazine-2-yl]-hy-drazide]
- IC50 (read-out: Activity (note 1)): 3 to 7 µM
- IC50 (read-out: Avg IC-50): 5 µM

SMILES: COc1ccc(Nc2nc(NCCNC(=O)CCCCC3SCC4NC(=O)NC43)nc(NC3CCCCCC3)n2)cc1Cl (centres unmarked) [drawing 597, of 5-(2-Oxo-hexahydro-thi-eno[3,4-d]imidazol-4-yl)-pen-tanoic acid {2,-[4-(3-chloro-4-meth-oxy-phenylamino)-6-cyclo-heptylamino-[1,3,5]triazin-2-yl-amino]-ethyl}-amide]
- IC50 [1]: 3 to 7 µM
- IC50 [2]: 3.2 µM

SMILES: CN1CCC(N(C)c2nc(Nc3cccc(F)c3)nc(NC3CCCCCC3)n2)CC1 [drawing 598, N-Cycloheptyl-N′-(3-fluoro-phe-nyl)-N″-methyl-N″-(1-methyl-piper-idin-4-yl)-[1,3,5]triazine-2,4,6-tri-amine]
- IC50 [1]: < 3 µM
- IC50 [2]: 1.23 µM

SMILES: CCN1CCCC1CNc1nc(NC2CCCCCC2)nc(NC2CCC(O)CC2)n1 (centres unmarked) [drawing 599, 4-{4-Cycloheptylamino-6-[(1-eth-yl-pyrrolidin-2-ylmethyl)-amino]-[1,3,5]triazin-2-ylamino}-cyclo-hexanol]
- IC50 [1]: 3 to 7 µM
- IC50 [2]: 4.1 µM

SMILES: CCN1CCCC1CNc1nc(Nc2ccc(OC)c(F)c2)nc(N2CCN(CC(=O)N3CCCC3)CC2)n1 (centres unmarked) [drawing 600, 2-{4-[4-[(1-Ethyl-pyrrolidin-2-yl-methyl)-amino]-6-(3-fluoro-4-meth-oxy-phenylamino)-[1,3,5tri-azin-2-yl]-piperazin-1-yl}-1-pyr-rolidin-1-yl-ethanonedihydrogen chloride salt]
- inhibition at 20 µM (read-out: inhibition at 20 μM (printed in the Avg IC-50 column)): 42%

SMILES: CCOc1nc(Nc2ccc(OC)c(F)c2)nc(NC2CCCCCC2)n1 [drawing 601, N-Cycloheptyl-6-ethoxy-N′-(3-fluoro--4-methoxy-phenyl)-[1,3,5]tri-azine-2,4-diamine]
- IC50 [1]: 3 to 7 µM
- IC50 [2]: 4.5 µM

SMILES: COc1ccc(Nc2nc(NCCNC(=O)OC(C)(C)C)nc(NC3CCCCCC3)n2)cc1Cl [{2-[4-(3-Chloro-4-methoxy-phenylamino)-6-cycloheptylamino-[1,3,5]triazin-2-ylamino]-ethyl}-carbamic acid tert-butyl ester]
- activity in anti-proliferation assay (Perlecan), in words (using the same activity scale used in Table 3): high activity
